What was measured:
rape = assay: Test B pre/postemergence rape; type: in vivo, Brassica napus
How it was run: (§1)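 Herbicidal effect was estimated by eye on a ten-point control scale after plants spent twelve to sixteen days in a greenhouse following soil or foliar treatment. Foliar sprays targeted plants at one to four leaves; all doses were formulated in a non-phytotoxic solvent with surfactant.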

giant foxtail = assay: Test B pre/postemergence giant foxtail; type: in vivo, Setaria faberii
How it was run: as §1

purple nutsedge = assay: Test B pre/postemergence purple nutsedge; type: in vivo, Cyperus rotundus
How it was run: as §1

surinam grass = assay: Test B pre/postemergence surinam grass; type: in vivo, Brachiaria decumbens
How it was run: as §1

corn = assay: Test B pre/postemergence corn; type: in vivo, Zea mays
How it was run: as §1

cocklebur = assay: Test B pre/postemergence cocklebur; type: in vivo, Xanthium strumarium
How it was run: as §1

crabgrass = assay: Test B pre/postemergence crabgrass; type: in vivo, Digitaria sanguinalis
How it was run: as §1

morningglory = assay: Test B pre/postemergence morningglory; type: in vivo, Ipomoea hederacea
How it was run: as §1

pigweed = assay: Test B pre/postemergence pigweed; type: in vivo, Amaranthus retroflexus
How it was run: as §1

wild oat = assay: Test B pre/postemergence wild oat; type: in vivo, Avena fatua
How it was run: as §1

blackgrass = assay: Test B pre/postemergence blackgrass; type: in vivo, Alopecurus myosuroides
How it was run: as §1

bedstraw = assay: Test B pre/postemergence bedstraw; type: in vivo, Galium aparine
How it was run: as §1

sugar beet = assay: Test B pre/postemergence sugar beet; type: in vivo, Beta vulgaris
How it was run: as §1

soybean = assay: Test B pre/postemergence soybean; type: in vivo, Glycine max
How it was run: as §1

wheat = assay: Test B pre/postemergence wheat; type: in vivo, Triticum aestivum
How it was run: as §1

velvetleaf = assay: Test B pre/postemergence velvetleaf; type: in vivo, Abutilon theophrasti
How it was run: as §1

[1] = Preemergence, Rate 62 g/ha, scale of 0 to 10 where 0 is no effect and 10 is complete control
[2] = Preemergence, Rate 125 g/ha, 0 is no effect, 10 is complete control
[3] = Preemergence, Rate 250 g/ha, scale 0 to 10, 0 is no effect, 10 is complete control
[4] = Preemergence, Rate 500 g/ha, scale 0 to 10 (0 no effect, 10 complete control)
[5] = Rate 62 g/ha, Postemergence, scale of 0 to 10 where 0 is no effect and 10 is complete control
[6] = Rate 125 g/ha, Postemergence, scale 0 to 10
[7] = Rate 500 g/ha, Postemergence, scale 0 to 10

Compound: CC(C)N(C(=O)n1oc(=O)n(CC2CO2)c1=O)c1ccc(F)cc1 (centres unmarked) [Compound 188]
- Rape plant response rating (rape; [1]): 0
- Rape plant response rating (0 to 10 scale) (rape; [2]): 0
- Rape plant response rating (rape; [3]): 0
- Rape plant response rating (rape; [4]): 0
- Rape plant response rating (rape; [5]): 0
- Rape plant response rating (rape; [6]): 0
- Plant response rating (0 to 10; 0 is no effect, 10 is complete control), Rape (rape; Rate 250 g/ha, Postemergence): 0
- Rape plant response rating (rape; [7]): 0
- Giant foxtail plant response rating (giant foxtail; [1]): 0
- Giant foxtail plant response rating (0 to 10 scale) (giant foxtail; [2]): 2
- Giant foxtail plant response rating (giant foxtail; [3]): 4
- Giant foxtail plant response rating (giant foxtail; [4]): 7
- Giant foxtail plant response rating (giant foxtail; [5]): 0
- Giant foxtail plant response rating (giant foxtail; [6]): 0
- Plant response rating (0 to 10; 0 is no effect, 10 is complete control), Giant foxtail (giant foxtail; Rate 250 g/ha, Postemergence): 2
- Giant foxtail plant response rating (giant foxtail; [7]): 4
- Nutsedge plant response rating (purple nutsedge; [1]): 0
- Nutsedge plant response rating (0 to 10 scale) (purple nutsedge; [2]): 0
- Nutsedge plant response rating (purple nutsedge; [3]): 0
- Nutsedge plant response rating (purple nutsedge; [4]): 0
- Nutsedge plant response rating (purple nutsedge; [5]): 0
- Nutsedge plant response rating (purple nutsedge; [6]): 0
- Plant response rating (0 to 10; 0 is no effect, 10 is complete control), Nutsedge (purple nutsedge; Rate 250 g/ha, Postemergence): 0
- Nutsedge plant response rating (purple nutsedge; [7]): 0
- B. signalgrass plant response rating (surinam grass; [1]): 0
- B. signalgrass plant response rating (0 to 10 scale) (surinam grass; [2]): 0
- B. signalgrass plant response rating (surinam grass; [3]): 6
- B. signalgrass plant response rating (surinam grass; [4]): 7
- B. signalgrass plant response rating (surinam grass; [5]): 0
- B. signalgrass plant response rating (surinam grass; Rate 125 g/ha, Postemergence, scale 0 (no effect) to 10 (complete control)): 0
- Plant response rating, B. signalgrass (surinam grass; Rate 250 g/ha, Postemergence, scale 0 to 10, 0 is no effect, 10 is complete control): 0
- B. signalgrass plant response rating (surinam grass; Rate 500 g/ha, Postemergence, scale 0 to 10, 0 no effect, 10 complete control): 0
- Corn plant response rating (corn; [1]): 0
- Corn plant response rating (0 to 10 scale) (corn; [2]): 0
- Corn plant response rating (corn; [3]): 0
- Corn plant response rating (corn; [4]): 0
- Corn plant response rating (corn; [5]): 0
- Corn plant response rating (corn; [6]): 0
- Plant response rating (0 to 10; 0 is no effect, 10 is complete control), Corn (corn; Rate 250 g/ha, Postemergence): 0
- Corn plant response rating (corn; [7]): 0
- Cocklebur plant response rating (cocklebur; [1]): 0
- Cocklebur plant response rating (0 to 10 scale) (cocklebur; [2]): 0
- Cocklebur plant response rating (cocklebur; [3]): 0
- Cocklebur plant response rating (cocklebur; [4]): 0
- Cocklebur plant response rating (cocklebur; [5]): 0
- Cocklebur plant response rating (cocklebur; [6]): 0
- Plant response rating (0 to 10; 0 is no effect, 10 is complete control), Cocklebur (cocklebur; Rate 250 g/ha, Postemergence): 0
- Cocklebur plant response rating (cocklebur; [7]): 0
- Crabgrass plant response rating (crabgrass; [1]): 0
- Crabgrass plant response rating (0 to 10 scale) (crabgrass; [2]): 0
- Crabgrass plant response rating (crabgrass; [3]): 0
- Crabgrass plant response rating (crabgrass; [4]): 0
- Crabgrass plant response rating (crabgrass; [5]): 0
- Crabgrass plant response rating (crabgrass; [6]): 0
- Plant response rating (0 to 10; 0 is no effect, 10 is complete control), Crabgrass (crabgrass; Rate 250 g/ha, Postemergence): 3
- Crabgrass plant response rating (crabgrass; [7]): 3
- Morningglory plant response rating (morningglory; [1]): 0
- Morningglory plant response rating (0 to 10 scale) (morningglory; [2]): 0
- Morningglory plant response rating (morningglory; [3]): 0
- Morningglory plant response rating (morningglory; [4]): 0
- Morningglory plant response rating (morningglory; [5]): 0
- Morningglory plant response rating (morningglory; [6]): 0
- Plant response rating (0 to 10; 0 is no effect, 10 is complete control), Morningglory (morningglory; Rate 250 g/ha, Postemergence): 0
- Morningglory plant response rating (morningglory; [7]): 0
- Redroot pigweed plant response rating (pigweed; [1]): 0
- Redroot pigweed plant response rating (0 to 10 scale) (pigweed; [2]): 0
- Redroot pigweed plant response rating (pigweed; [3]): 0
- Redroot pigweed plant response rating (pigweed; [4]): 0
- Redroot pigweed plant response rating (pigweed; [5]): 0
- Redroot pigweed plant response rating (pigweed; [6]): 0
- Plant response rating (0 to 10; 0 is no effect, 10 is complete control), Redroot pigweed (pigweed; Rate 250 g/ha, Postemergence): 0
- Redroot pigweed plant response rating (pigweed; [7]): 3
- Wild oats plant response rating (wild oat; [1]): 0
- Wild oats plant response rating (wild oat; [3]): 0
- Wild oats plant response rating (wild oat; [4]): 0
- Wild oats plant response rating (wild oat; [5]): 0
- Wild oats plant response rating (wild oat; [6]): 0
- Plant response rating (0 to 10; 0 is no effect, 10 is complete control), Wild oats (wild oat; Rate 250 g/ha, Postemergence): 0
- Blackgrass plant response rating (blackgrass; [1]): 0
- Blackgrass plant response rating (0 to 10 scale) (blackgrass; [2]): 0
- Blackgrass plant response rating (blackgrass; [3]): 0
- Blackgrass plant response rating (blackgrass; [4]): 0
- Blackgrass plant response rating (blackgrass; [5]): 0
- Blackgrass plant response rating (blackgrass; [6]): 0
- Plant response rating (0 to 10; 0 is no effect, 10 is complete control), Blackgrass (blackgrass; Rate 250 g/ha, Postemergence): 0
- Blackgrass plant response rating (blackgrass; [7]): 3
- Bedstraw plant response rating (bedstraw; [1]): 0
- Bedstraw plant response rating (0 to 10 scale) (bedstraw; [2]): 0
- Bedstraw plant response rating (bedstraw; [3]): 0
- Bedstraw plant response rating (bedstraw; [4]): 0
- Bedstraw plant response rating (bedstraw; [5]): 0
- Bedstraw plant response rating (bedstraw; [6]): 0
- Plant response rating (0 to 10; 0 is no effect, 10 is complete control), Bedstraw (bedstraw; Rate 250 g/ha, Postemergence): 3
- Bedstraw plant response rating (bedstraw; [7]): 5
- Sugarbeets plant response rating (sugar beet; [1]): 0
- Sugarbeets plant response rating (0 to 10 scale) (sugar beet; [2]): 0
- Sugarbeets plant response rating (sugar beet; [3]): 0
- Sugarbeets plant response rating (sugar beet; [4]): 6
- Sugarbeets plant response rating (sugar beet; [5]): 0
- Sugarbeets plant response rating (sugar beet; [6]): 0
- Plant response rating (0 to 10; 0 is no effect, 10 is complete control), Sugarbeets (sugar beet; Rate 250 g/ha, Postemergence): 0
- Sugarbeets plant response rating (sugar beet; [7]): 7
- Soybean plant response rating (soybean; [1]): 0
- Soybean plant response rating (0 to 10 scale) (soybean; [2]): 0
- Soybean plant response rating (soybean; [3]): 0
- Soybean plant response rating (soybean; [4]): 0
- Soybean plant response rating (soybean; [5]): 1
- Soybean plant response rating (soybean; [6]): 2
- Plant response rating (0 to 10; 0 is no effect, 10 is complete control), Soybean (soybean; Rate 250 g/ha, Postemergence): 2
- Soybean plant response rating (soybean; [7]): 3
- Wheat plant response rating (wheat; [1]): 0
- Wheat plant response rating (wheat; [3]): 0
- Wheat plant response rating (wheat; [4]): 0
- Wheat plant response rating (wheat; [5]): 0
- Wheat plant response rating (wheat; [6]): 0
- Plant response rating (0 to 10; 0 is no effect, 10 is complete control), Wheat (wheat; Rate 250 g/ha, Postemergence): 0
- Velvetleaf plant response rating (velvetleaf; [1]): 0
- Velvetleaf plant response rating (velvetleaf; [3]): 0
- Velvetleaf plant response rating (velvetleaf; [4]): 2
- Velvetleaf plant response rating (velvetleaf; [5]): 0
- Velvetleaf plant response rating (velvetleaf; [6]): 0
- Plant response rating (0 to 10; 0 is no effect, 10 is complete control), Velvetleaf (velvetleaf; Rate 250 g/ha, Postemergence): 0
